Reference: PMC3001897, “High-Throughput Chemical Screen Identifies a Novel Potent Modulator of Cellular Circadian Rhythms and Reveals CKIα as a Clock Regulatory Kinase” (PLoS Biology, 2010)
One block for each compound: values may come before it.

Legend:
cultured cells = system: cultured cells; design: method as in PMID 16983144, PMID 15767683, PMID 17876059; details: ref [14],[16]–[17]; cited from earlier work
CDK7 = target: T1, CDK7 (Homo sapiens, UniProt P50613); assay: In vitro kinase assay, CDK7; type: biochemical
T1 construct: purchased Millipore 14-476
T1 sequence (P50613 whole entry): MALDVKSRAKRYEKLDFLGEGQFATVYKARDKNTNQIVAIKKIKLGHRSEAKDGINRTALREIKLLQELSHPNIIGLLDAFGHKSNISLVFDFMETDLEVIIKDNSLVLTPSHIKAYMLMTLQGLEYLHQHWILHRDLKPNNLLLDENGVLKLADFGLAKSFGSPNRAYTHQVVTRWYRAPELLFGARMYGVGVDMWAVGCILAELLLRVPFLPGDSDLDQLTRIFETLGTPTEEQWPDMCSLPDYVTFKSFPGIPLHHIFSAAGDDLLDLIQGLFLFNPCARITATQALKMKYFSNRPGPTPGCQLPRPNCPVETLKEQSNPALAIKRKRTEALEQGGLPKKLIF
T1 sequence (P51946 whole entry partner): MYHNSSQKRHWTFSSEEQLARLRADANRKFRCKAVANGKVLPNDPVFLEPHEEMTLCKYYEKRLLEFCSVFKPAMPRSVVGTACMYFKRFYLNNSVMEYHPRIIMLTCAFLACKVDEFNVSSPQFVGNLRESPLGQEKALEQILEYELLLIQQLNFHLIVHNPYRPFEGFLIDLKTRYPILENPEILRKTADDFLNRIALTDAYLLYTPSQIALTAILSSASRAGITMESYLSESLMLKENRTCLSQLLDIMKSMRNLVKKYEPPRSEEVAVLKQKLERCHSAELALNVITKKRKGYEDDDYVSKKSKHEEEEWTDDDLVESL
T1 sequence (P51948 whole entry partner): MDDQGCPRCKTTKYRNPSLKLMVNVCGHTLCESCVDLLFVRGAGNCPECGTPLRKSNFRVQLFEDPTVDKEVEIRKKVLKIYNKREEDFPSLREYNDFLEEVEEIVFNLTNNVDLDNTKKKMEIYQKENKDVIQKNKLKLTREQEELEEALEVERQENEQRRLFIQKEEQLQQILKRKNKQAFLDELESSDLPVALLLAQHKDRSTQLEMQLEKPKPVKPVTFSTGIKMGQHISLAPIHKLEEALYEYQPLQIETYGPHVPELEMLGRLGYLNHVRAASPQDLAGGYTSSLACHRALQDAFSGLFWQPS
Method: (§1) The CKIδ, CKIα, CDK7, and ERK2 kinase assays were performed on 384-well plates (10 µl volume). The reaction mixture was as follows: for CKIδ, 2 ng/µl CKIδ (Millipore, 14-520), 50 µM peptide substrate RKKKAEpSVASLTSQCSYSS corresponding to human PER2 Lys659-Ser674 [47], and CKI buffer (40 mM Tris, 10 mM MgCl2, 0.5 mM DTT, 0.1 mg/ml BSA, pH 7.5); for CKIα, 1 ng/µl CKIα (Invitrogen, PV3850), 50 µM CKI peptide substrate (Anaspec, 60547-1), and CKI buffer; for CDK7, 5 ng/µl CDK7 (Millipore, 14-476), 100 µM Cdk7/9 peptide substrate (Millipore, 12-526), and CKI buffer; for ERK2, 1.5 ng/µl ERK2 (Millipore, 14-550), 0.8 µg/µl MBP (Millipore, 13-104), and ERK buffer (50 mM Tris, 10 mM MgCl2, 0.5 mM DTT, 1 mM EGTA, pH 7.5). Five hundred nl of compound was added to the mixture (final 5% DMSO), and the reaction was started by adding ATP (final 5 µM). After incubation at 30°C for 3h, 10 µl of Kinase-Glo Luminescent Kinase Assay reagent (Promega) was added, and the luminescence was detected to determine remaining ATP amount. […] IC50 value was obtained by using Prism software (GraphPad Software).

CKIα = CKIα (Homo sapiens, UniProt P48729); assay: In vitro kinase assay, CKIα; type: biochemical; design: purchased Invitrogen PV3850
Chain of CKIα (P48729 whole entry): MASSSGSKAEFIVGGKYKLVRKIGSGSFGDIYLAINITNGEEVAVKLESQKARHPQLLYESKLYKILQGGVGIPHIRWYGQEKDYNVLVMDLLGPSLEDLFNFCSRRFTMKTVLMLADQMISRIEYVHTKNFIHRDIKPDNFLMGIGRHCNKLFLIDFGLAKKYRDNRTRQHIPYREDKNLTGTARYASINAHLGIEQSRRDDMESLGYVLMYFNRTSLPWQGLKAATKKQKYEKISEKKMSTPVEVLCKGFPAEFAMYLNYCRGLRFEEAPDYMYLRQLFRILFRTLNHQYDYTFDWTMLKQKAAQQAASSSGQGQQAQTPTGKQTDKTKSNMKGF
Method: as §1

CKIδ = CKIδ (Homo sapiens, UniProt P48730); assay: In vitro kinase assay, CKIδ; type: biochemical; design: purchased Millipore 14-520
Chain of CKIδ (P48730 whole entry, species assumed): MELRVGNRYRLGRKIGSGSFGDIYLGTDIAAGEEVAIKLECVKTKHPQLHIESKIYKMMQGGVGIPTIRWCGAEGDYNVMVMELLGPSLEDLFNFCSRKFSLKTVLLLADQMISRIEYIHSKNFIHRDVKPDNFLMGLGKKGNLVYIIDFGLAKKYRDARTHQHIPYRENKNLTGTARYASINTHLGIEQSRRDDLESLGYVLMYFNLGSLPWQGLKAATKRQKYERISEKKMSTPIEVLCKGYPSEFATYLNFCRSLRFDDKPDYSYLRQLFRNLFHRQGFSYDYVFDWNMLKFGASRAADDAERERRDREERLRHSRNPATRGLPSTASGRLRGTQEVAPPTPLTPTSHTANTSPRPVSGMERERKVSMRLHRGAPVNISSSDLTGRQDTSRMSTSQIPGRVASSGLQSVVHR
Method: as §1

Bmal1-dLuc U2OS cells [1] = assay: U2OS cell-based circadian assay (Bmal1-dLuc luminescence rhythms); design: species or system human; details: Bmal1-dLuc U2OS cells; for Effect on circadian period: various concentrations; for Period effect compared with longdaysin: Figure S10
Method: (§2) The compound screen was done with the high-throughput circadian assay system as described previously. In brief, Bmal1-dLuc U2OS cells were suspended in the culture medium (DMEM supplemented with 10% fetal bovine serum, 0.29 mg/ml L-glutamine, 100 units/ml penicillin, and 100 µg/ml streptomycin) and plated onto 384-well white solid-bottom plates at 20 µl (2,000 cells) per well. After 2 d, 50 µl of the explant medium (DMEM supplemented with 2% B27, 10 mM HEPES, 0.38 mg/ml sodium bicarbonate, 0.29 mg/ml L-glutamine, 100 units/ml penicillin, 100 µg/ml streptomycin, 0.1 mg/ml gentamicin, and 1 mM luciferin, pH 7.2) was dispensed to each well, followed by the application of 500 nl of compounds (dissolved in DMSO; final 0.7% DMSO). The plate was covered with an optically clear film and set to luminescence monitoring system equipped with a CCD imager (ViewLux, Perkin Elmer). The luminescence was recorded every 2 h for 3–4 days. In follow-up studies, the luminescence was recorded every 100 min by using a microplate reader (Infinite M200, Tecan). The period parameter was obtained from the luminescence rhythm by curve fitting program CellulaRhythm or MultiCycle (Actimetrics), both of which gave similar results.

ERK2 = target: T2, ERK2 (Homo sapiens, UniProt P28482); assay: In vitro kinase assay, ERK2; type: biochemical
T2 construct: purchased Millipore 14-550
T2 sequence (P28482 whole entry, species assumed): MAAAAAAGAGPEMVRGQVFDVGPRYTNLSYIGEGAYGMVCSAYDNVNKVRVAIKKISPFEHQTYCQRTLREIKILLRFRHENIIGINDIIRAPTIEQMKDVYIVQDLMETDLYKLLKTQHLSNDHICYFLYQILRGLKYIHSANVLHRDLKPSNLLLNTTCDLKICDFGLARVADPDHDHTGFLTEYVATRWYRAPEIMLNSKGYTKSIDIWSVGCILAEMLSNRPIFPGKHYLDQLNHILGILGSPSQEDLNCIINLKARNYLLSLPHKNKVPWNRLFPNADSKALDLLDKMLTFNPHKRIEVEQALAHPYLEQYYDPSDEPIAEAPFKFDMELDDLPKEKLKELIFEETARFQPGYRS
Method: as §1

Bmal1-dLuc U2OS cells [2] = assay: Cytotoxicity in the U2OS circadian assay; type: cell-based, human
Method: as §2

SCN explants = system: SCN explants; design: method as in PMID 18448638; details: ref [59]; cited from earlier work

Compound: NCCNS(=O)(=O)c1ccc(Cl)c2ccncc12 [CKI-7]
Effect on period in cultured cells (cultured cells): period lengthening

IC50 (CDK7; ATP 5 µM, from Figure 2E): 29 µM
Inhibition of CDK7 compared with longdaysin (CDK7; in vitro kinase assay): inhibited CDK7 similarly to longdaysin
IC50 (CKIα; ATP 5 µM, from Figure 2E): 23 µM
Potency against CKIα relative to longdaysin (times less) (CKIα; in vitro kinase assay): ~3 times
IC50 (CKIδ; ATP 5 µM, from Figure 2E): 21 µM
Potency against CKIδ relative to longdaysin (times less) (CKIδ; in vitro kinase assay): ~3 times
IC50 (ERK2; ATP 5 µM, from Figure 2E): 160 µM
Potency against ERK2 relative to longdaysin (times less) (ERK2; in vitro kinase assay): ~3 times
Compound: CC(C)n1cnc2c(NCc3ccccc3)ncnc21 [Compound 1, N-benzyl-9-isopropyl-9H-purin-6-amine]
Effect on circadian period (Bmal1-dLuc U2OS cells [1]): strongly lengthened the period in a dose-dependent manner
Concentration for period change, 5 h (Bmal1-dLuc U2OS cells [1]; from Figure 1B): 4.4 µM
Concentration for period change, 10 h (Bmal1-dLuc U2OS cells [1]; from Figure 1B): 17 µM
Concentration for period change, 15 h (Bmal1-dLuc U2OS cells [1]; from Figure 1B): 38 µM

Compound: CC(=O)NCCCCCCNc1nc(NCc2cccc(C(F)(F)F)c2)c2ncn(C(C)C)c2n1 [Compound 2, N-(6-(9-isopropyl-6-(3-(trifluoromethyl)benzylamino)-9H-purin-2-ylamino)hexyl)acetamide]
Effect on circadian period (Bmal1-dLuc U2OS cells [1]): retained the period lengthening effect

Compound: NC(=O)c1ccc(-c2nc(-c3ccc4c(c3)OCCO4)c(-c3ccccn3)[nH]2)cc1 [Compound D4476, reference compound]
Period effect compared with longdaysin (Bmal1-dLuc U2OS cells [1]): smaller period effects
Concentration showing cytotoxicity (Bmal1-dLuc U2OS cells [2]): 71 µM
Effect on period in cultured cells (cultured cells): period lengthening

Compound: N#CC(=C(/N)Sc1ccccc1N)/C(C#N)=C(/N)Sc1ccccc1N [Compound U0126]
Effect on circadian rhythms in SCN explants (SCN explants): Attenuation of the circadian rhythms

Compound: COc1cc(OC)c(C=C2C(O)=Nc3ccccc32)c(OC)c1 [IC261, reference compound]
Period effect compared with longdaysin (Bmal1-dLuc U2OS cells [1]): smaller period effects
Effect on period in cultured cells (cultured cells): period lengthening
